Experimental data from patent publication US20030086873A1, “Myocardial imaging agent and preparation method thereof” (priority 2001, published 2003).

Experiments:
Type in all cases: in vivo
[1] = Biological distribution in the bodies of Kunming mice after caudal vein injection
Method: The complexes [^99mTc(CO)3(OH2)3]^+ and [^99mTc(CO)3(MIBI)3]^+ prepared in Example 1 were separately injected in the caudal vein of Kunming mice. The experiment was conducted on three mice within each time period, and the injection's activity was 925 KBq. The radioactivity of individual organs's tissue was measured at 5, 15, 30, and 60 minutes after the injection, and the results are represented by radioactive uptake rate per gram of tissue.
The results of the distribution of [^99mTc(CO)3(OH2)3]^+ in the mice's bodies are included in Tables 2; the results for [^99mTc(CO)3(MIBI)3]^+ are presented in Table 3. The value “% ID/g” is the percentage of the injection's total radioactivity that each gram of tissue accounts for i.e., the radioactive uptake rate per gram of tissue, with ID standing for “injected dose.”

[2] = Dynamic SPECT imaging and biological distribution in dogs after intravenous injection; settings: for Heart biological distribution / Kidneys biological distribution / Liver biological distribution / Lungs biological distribution: i.v.
Method: (§1) Dogs were intravenously injected with [^99mTc(CO)3(MIBI)3]^+ or [^99mTc(MIBI)6][…]at dose of […]. Immediately following injection, dynamic photography for up to 120 min was performed using a Toshiba GCA 7200A two-probe SPECT and a low energy parallel aperture regular collimator. Time—radioactivity curves were also collected for the heart, liver, lungs, and kidneys. Target/non-target radioactivity ratios were calculated, and fall body imaging was performed separately at different times. The biological distributions of the imaging agents in the body were analyzed. Vein blood samples were collected separately at different times, and the dynamics of the blood clearance was analyzed. Flat myocardial imaging was conducted separately at different times, with myocardial tomographic imaging at 120 minutes post injection.

[3] = Blood clearance kinetics in dogs (vein blood samples); settings: intravenous administration, secondary model
Method: as §1

Structure (SMILES): COC(C)(C)CN=[C]=[99Tc+](=[C]=O)(=[C]=O)(=[C]=O)(=[C]=NCC(C)(C)OC)=[C]=NCC(C)(C)OC [[^99mTc(CO)3(MIBI)3]^+]
- Target/Non-Target Uptake Ratio Heart/Blood ([1]; 5 Minutes): 20.99
- Target/Non-Target Uptake Ratio Heart/Liver ([1]; 5 Minutes): 1.88
- Target/Non-Target Uptake Ratio Heart/Lungs ([1]; 5 Minutes): 3.51
- Blood radioactive uptake per gram of tissue ([1]; 5 Minutes after injection): 1.03 ± 0.21 % ID/g
- Bones radioactive uptake per gram of tissue ([1]; 5 Minutes after injection): 3.72 ± 0.84 % ID/g
- Brain radioactive uptake per gram of tissue ([1]; 5 Minutes after injection): 0.18 ± 0.02 % ID/g
- Heart radioactive uptake per gram of tissue ([1]; 5 Minutes after injection): 21.62 ± 2.84 % ID/g
- Kidneys radioactive uptake per gram of tissue ([1]; 5 Minutes after injection): 57.90 ± 1.80 % ID/g
- Liver radioactive uptake per gram of tissue ([1]; 5 Minutes after injection): 11.48 ± 0.88 % ID/g
- Lungs radioactive uptake per gram of tissue ([1]; 5 Minutes after injection): 6.16 ± 0.48 % ID/g
- Muscles radioactive uptake per gram of tissue ([1]; 5 Minutes after injection): 7.08 ± 0.52 % ID/g
- Spleen radioactive uptake per gram of tissue ([1]; 5 Minutes after injection): 6.26 ± 1.29 % ID/g
- Target/Non-Target Uptake Ratio Heart/Blood ([1]; 15 Minutes): 64.47
- Target/Non-Target Uptake Ratio Heart/Liver ([1]; 15 Minutes): 2.49
- Target/Non-Target Uptake Ratio Heart/Lungs ([1]; 15 Minutes): 4.98
- Blood radioactive uptake per gram of tissue ([1]; 15 Minutes after injection): 0.32 ± 0.05 % ID/g
- Bones radioactive uptake per gram of tissue ([1]; 15 Minutes after injection): 2.10 ± 0.10 % ID/g
- Brain radioactive uptake per gram of tissue ([1]; 15 Minutes after injection): 0.18 ± 0.02 % ID/g
- Heart radioactive uptake per gram of tissue ([1]; 15 Minutes after injection): 20.63 ± 3.89 % ID/g
- Kidneys radioactive uptake per gram of tissue ([1]; 15 Minutes after injection): 33.66 ± 0.42 % ID/g
- Liver radioactive uptake per gram of tissue ([1]; 15 Minutes after injection): 8.28 ± 0.90 % ID/g
- Lungs radioactive uptake per gram of tissue ([1]; 15 Minutes after injection): 4.14 ± 0.90 % ID/g
- Muscles radioactive uptake per gram of tissue ([1]; 15 Minutes after injection): 3.78 ± 0.88 % ID/g
- Spleen radioactive uptake per gram of tissue ([1]; 15 Minutes after injection): 3.84 ± 0.90 % ID/g
- Target/Non-Target Uptake Ratio Heart/Blood ([1]; 30 Minutes): 86.54
- Target/Non-Target Uptake Ratio Heart/Liver ([1]; 30 Minutes): 3.23
- Target/Non-Target Uptake Ratio Heart/Lungs ([1]; 30 Minutes): 5.34
- Blood radioactive uptake per gram of tissue ([1]; 30 Minutes after injection): 0.24 ± 0.07 % ID/g
- Bones radioactive uptake per gram of tissue ([1]; 30 Minutes after injection): 1.94 ± 0.29 % ID/g
- Brain radioactive uptake per gram of tissue ([1]; 30 Minutes after injection): 0.12 ± 0.01 % ID/g
- Heart radioactive uptake per gram of tissue ([1]; 30 Minutes after injection): 20.77 ± 1.60 % ID/g
- Kidneys radioactive uptake per gram of tissue ([1]; 30 Minutes after injection): 23.94 ± 2.11 % ID/g
- Liver radioactive uptake per gram of tissue ([1]; 30 Minutes after injection): 6.44 ± 1.03 % ID/g
- Lungs radioactive uptake per gram of tissue ([1]; 30 Minutes after injection): 3.89 ± 0.54 % ID/g
- Muscles radioactive uptake per gram of tissue ([1]; 30 Minutes after injection): 6.14 ± 0.78 % ID/g
- Spleen radioactive uptake per gram of tissue ([1]; 30 Minutes after injection): 2.84 ± 0.41 % ID/g
- Target/Non-Target Uptake Ratio Heart/Blood ([1]; 60 Minutes): 149.15
- Target/Non-Target Uptake Ratio Heart/Liver ([1]; 60 Minutes): 4.13
- Target/Non-Target Uptake Ratio Heart/Lungs ([1]; 60 Minutes): 6.06
- Blood radioactive uptake per gram of tissue ([1]; 60 Minutes after injection): 0.13 ± 0.04 % ID/g
- Bones radioactive uptake per gram of tissue ([1]; 60 Minutes after injection): 1.42 ± 0.31 % ID/g
- Brain radioactive uptake per gram of tissue ([1]; 60 Minutes after injection): 0.08 ± 0.01 % ID/g
- Heart radioactive uptake per gram of tissue ([1]; 60 Minutes after injection): 19.39 ± 0.91 % ID/g
- Kidneys radioactive uptake per gram of tissue ([1]; 60 Minutes after injection): 11.30 ± 0.73 % ID/g
- Liver radioactive uptake per gram of tissue ([1]; 60 Minutes after injection): 4.69 ± 0.34 % ID/g
- Lungs radioactive uptake per gram of tissue ([1]; 60 Minutes after injection): 3.20 ± 0.85 % ID/g
- Muscles radioactive uptake per gram of tissue ([1]; 60 Minutes after injection): 4.42 ± 0.36 % ID/g
- Spleen radioactive uptake per gram of tissue ([1]; 60 Minutes after injection): 1.62 ± 0.32 % ID/g
- Concentration in livers ([1]; in words): comparatively low
- Specific concentration in tissues / heart ([1]; in words): apparent concentration
- heart:blood ratio compared with [^99mTc(MIBI)6]^+ ([1]; in words): comparable
- heart:liver ratio compared with [^99mTc(MIBI)6]^+ ([1]; in words): higher
- Radioactive retention ([1]; within 60 minutes, in words): good radioactive retention
- Target/Non-Target Uptake Ratio Heart/Kidneys ([2]; 2 Minutes): 0.56 ± 0.13
- Target/Non-Target Uptake Ratio Heart/Liver ([2]; 2 Minutes): 1 ± 0.18
- Target/Non-Target Uptake Ratio Heart/Lungs ([2]; 2 Minutes): 2.51 ± 0.25
- Target/Non-Target Uptake Ratio Heart/Kidneys ([2]; 5 Minutes): 0.53 ± 0.12
- Target/Non-Target Uptake Ratio Heart/Liver ([2]; 5 Minutes): 0.98 ± 0.11
- Target/Non-Target Uptake Ratio Heart/Lungs ([2]; 5 Minutes): 2.67 ± 0.27
- Target/Non-Target Uptake Ratio Heart/Kidneys ([2]; 10 Minutes): 0.53 ± 0.1
- Target/Non-Target Uptake Ratio Heart/Liver ([2]; 10 Minutes): 0.92 ± 0.13
- Target/Non-Target Uptake Ratio Heart/Lungs ([2]; 10 Minutes): 2.6 ± 0.26
- Target/Non-Target Uptake Ratio Heart/Kidneys ([2]; 20 Minutes): 0.59 ± 0.1
- Target/Non-Target Uptake Ratio Heart/Liver ([2]; 20 Minutes): 0.97 ± 0.1
- Target/Non-Target Uptake Ratio Heart/Lungs ([2]; 20 Minutes): 2.8 ± 0.44
- Target/Non-Target Uptake Ratio Heart/Kidneys ([2]; 30 Minutes): 0.62 ± 0.15
- Target/Non-Target Uptake Ratio Heart/Liver ([2]; 30 Minutes): 1.02 ± 0.11
- Target/Non-Target Uptake Ratio Heart/Lungs ([2]; 30 Minutes): 2.96 ± 0.43
- Target/Non-Target Uptake Ratio Heart/Kidneys ([2]; 40 Minutes): 0.58 ± 0.08
- Target/Non-Target Uptake Ratio Heart/Liver ([2]; 40 Minutes): 1.06 ± 0.17
- Target/Non-Target Uptake Ratio Heart/Lungs ([2]; 40 Minutes): 3 ± 0.51
- Target/Non-Target Uptake Ratio Heart/Kidneys ([2]; 60 Minutes): 0.6 ± 0.06
- Target/Non-Target Uptake Ratio Heart/Liver ([2]; 60 Minutes): 1.22 ± 0.2
- Target/Non-Target Uptake Ratio Heart/Lungs ([2]; 60 Minutes): 3.05 ± 0.52
- Target/Non-Target Uptake Ratio Heart/Kidneys ([2]; 90 Minutes): 0.6 ± 0.06
- Target/Non-Target Uptake Ratio Heart/Liver ([2]; 90 Minutes): 1.25 ± 0.33
- Target/Non-Target Uptake Ratio Heart/Lungs ([2]; 90 Minutes): 3.1 ± 0.49
- Target/Non-Target Uptake Ratio Heart/Kidneys ([2]; 120 Minutes): 0.63 ± 0.04
- Target/Non-Target Uptake Ratio Heart/Liver ([2]; 120 Minutes): 1.37 ± 0.26
- Target/Non-Target Uptake Ratio Heart/Lungs ([2]; 120 Minutes): 3.09 ± 0.56
- Heart biological distribution ([2]; 10 Minutes): 3.80 ± 0.44 % ID/g
- Kidneys biological distribution ([2]; 10 Minutes): 15.33 ± 0.75 % ID/g
- Liver biological distribution ([2]; 10 Minutes): 12.93 ± 0.70 % ID/g
- Lungs biological distribution ([2]; 10 Minutes): 5.13 ± 0.06 % ID/g
- Heart biological distribution ([2]; 20 Minutes): 3.97 ± 0.50 % ID/g
- Kidneys biological distribution ([2]; 20 Minutes): 14.70 ± 1.14 % ID/g
- Liver biological distribution ([2]; 20 Minutes): 14.00 ± 1.78 % ID/g
- Lungs biological distribution ([2]; 20 Minutes): 4.70 ± 0.20 % ID/g
- Heart biological distribution ([2]; 30 Minutes): 4.00 ± 0.30 % ID/g
- Kidneys biological distribution ([2]; 30 Minutes): 14.53 ± 1.86 % ID/g
- Liver biological distribution ([2]; 30 Minutes): 14.27 ± 1.97 % ID/g
- Lungs biological distribution ([2]; 30 Minutes): 4.70 ± 0.26 % ID/g
- Heart biological distribution ([2]; 40 Minutes): 3.73 ± 0.51 % ID/g
- Kidneys biological distribution ([2]; 40 Minutes): 13.27 ± 1.65 % ID/g
- Liver biological distribution ([2]; 40 Minutes): 16.37 ± 2.47 % ID/g
- Lungs biological distribution ([2]; 40 Minutes): 4.80 ± 0.72 % ID/g
- Heart biological distribution ([2]; 60 Minutes): 3.63 ± 0.49 % ID/g
- Kidneys biological distribution ([2]; 60 Minutes): 12.23 ± 1.00 % ID/g
- Liver biological distribution ([2]; 60 Minutes): 17.53 ± 2.85 % ID/g
- Lungs biological distribution ([2]; 60 Minutes): 4.40 ± 0.44 % ID/g
- Heart biological distribution ([2]; 90 Minutes): 3.77 ± 0.64 % ID/g
- Kidneys biological distribution ([2]; 90 Minutes): 12.37 ± 1.75 % ID/g
- Liver biological distribution ([2]; 90 Minutes): 19.67 ± 3.72 % ID/g
- Lungs biological distribution ([2]; 90 Minutes): 4.20 ± 0.26 % ID/g
- Heart biological distribution ([2]; 120 Minutes): 3.73 ± 0.58 % ID/g
- Kidneys biological distribution ([2]; 120 Minutes): 12.40 ± 3.48 % ID/g
- Liver biological distribution ([2]; 120 Minutes): 21.03 ± 2.78 % ID/g
- Lungs biological distribution ([2]; 120 Minutes): 4.07 ± 0.15 % ID/g
- Radioactivity in the liver compared with [^99mTc(MIBI)6]^+ ([2]; imaging, in words): clearly lower
- Liver time-radioactivity curve relative to the myocardial curve ([2]; in words): lower than the myocardial curve
- CL (blood clearance) [3]: 401.33 ± 73.51 mL/h
- T(α)⅓ of blood clearance curve [3]: 1.33 ± 0.12 min
- T(β)½ of blood clearance curve [3]: 102.33 ± 25.58 min
